Consider 15 molecules from patent US20240050428A1 (Cullgen (Shanghai), Inc., priority 2020, published 2024).

The subject of one test is MOLM-13 cells. Description: Cell viability assay (CellTiter-Glo) in MOLM-13 cells, alone or with gilteritinib. The test is classed as cell-based. The settings on record: Homo sapiens, MOLM-13 cells, CellTiter-Glo. Background: ATP-based viability assays read luminescence as a measure of living cells.
The next test concerns MV4;11 cells. Description: Cell viability assay (CellTiter-Glo) in MV4;11 cells, alone or with gilteritinib. It counts as cell-based. The settings on record: Homo sapiens, MV4;11 cells, CellTiter-Glo, read-out: MV4.
[1] abbreviates: MOLM-13, 72 h, with 20 nM gilteritinib, 3 days, read-out: MOLM-13 IC50 gilteritinib.
The mark [2] stands for this setting: MOLM-13, 72 h, without gilteritinib, 3 days, read-out: MOLM-13 IC50.
The mark [3] stands for this setting: MV4-11, 72 h, with 10 nM gilteritinib, 3 days, 11 IC50 gilteritinib.
Where [4] appears, read: MV4-11, 72 h, without gilteritinib, 3 days, 11 IC50.
The mark [5] stands for this setting: MOLM-13, 72 h, compound alone (without gilteritinib), three days, read-out: MOLM-13 IC50.
[6] abbreviates: MOLM-13, 72 h, with gilteritinib 20 nM, three days, read-out: MOLM-13 IC50 gilteritinib.
Where [7] appears, read: MV4-11, 72 h, compound alone (without gilteritinib), three days, 11 IC50.
The mark [8] stands for this setting: MV4-11, 72 h, with gilteritinib 10 nM, three days, 11 IC50 gilteritinib.
The mark [9] stands for this setting: MOLM-13, 72 h, compound with gilteritinib 20 nM, three days, read-out: MOLM-13 IC50 gilteritinib.
The mark [10] stands for this setting: MV4-11, 72 h, compound with gilteritinib 10 nM, three days, 11 IC50 gilteritinib.

Like-named read-outs stand apart in the source and are kept apart here.

With `O=C1CCC(N2C(=O)c3ccc(NCCCCCC(=O)N4CCC(n5cccn5)CC4)cc3C2=O)C(=O)N1` (stereo not drawn) [GS-003, 5-((6-(4-(1H-Pyrazol-1-yl)piperidin-1-yl)-6-oxohexyl)amino)-2-(2,6-dioxopiperidin-3-yl)isoindoline-1,3-dione], the IC50 in the test on MOLM-13 cells (setting [1]) is 103 nM; with MOLM-13 cells (setting [2]) it was greater than 10000 nM; in the test with MV4;11 cells (setting [3]), 191 nM; in the test with MV4;11 cells (setting [4]), greater than 10000 nM.
For `Cc1ccc(-c2cn([C@H]3C[C@H](CNc4ccc5c(c4)C(=O)N(C4CCC(=O)NC4=O)C5=O)C3)nc2C2CC2)nc1` (stereo partly drawn) [GS-256, 5-(((trans-3-(3-Cyclopropyl-4-(5-methylpyridin-2-yl)-1H-pyrazol-1-yl)cyclobutyl)methyl)amino)-2-(2,6-dioxopiperidin-3-yl)isoindoline-1,3-dione], the IC50 is 100 to 1000 nM in the test on MOLM-13 cells (setting [5]), less than 10 nM with MOLM-13 cells (setting [6]), 10 to 100 nM in the test with MV4;11 cells (setting [7]) and less than 10 nM in the test on MV4;11 cells (setting [8]).
Consider `C[C@H]1CN(c2ccc3ncc(-c4cnn([C@H]5C[C@H](CCCNc6ccc7c(c6)C(=O)N(C6CCC(=O)NC6=O)C7=O)C5)c4)nc3c2)CCN1C` (stereo partly drawn) [GS-575, 5-((3-(trans-3-(4-(7-((S)-3,4-Dimethylpiperazin-1-yl)quinoxalin-2-yl)-1H-pyrazol-1-yl)cyclobutyl)propyl)amino)-2-(2,6-dioxopiperidin-3-yl)isoindoline-1,3-dione], for which the IC50 was 10 to 100 nM in the test on MOLM-13 cells (setting [5]), less than 10 nM in the test on MOLM-13 cells (setting [9]), 10 to 100 nM with MV4;11 cells (setting [7]) and less than 10 nM in the test with MV4;11 cells (setting [10]).
For the molecule `O=C1CCC(N2C(=O)c3ccc(NC4CC(n5cc(-c6cnc7ccccc7n6)cn5)C4)cc3C2=O)C(=O)N1` (stereo not drawn) [GS-524, 2-(2,6-Dioxopiperidin-3-yl)-5-((3-(4-(quinoxalin-2-yl)-1H-pyrazol-1-yl)cyclobutyl)amino)isoindoline-1,3-dione], the IC50 in the test on MOLM-13 cells (setting [5]) is greater than 1000 nM; with MOLM-13 cells (setting [9]), 10 to 100 nM; in the test with MV4;11 cells (setting [7]), 100 to 1000 nM; in the test on MV4;11 cells (setting [10]), 100 to 1000 nM.
For `CN(C)c1ccnc(-c2cn([C@H]3C[C@H](CNc4ccc5c(c4)C(=O)N(C4CCC(=O)NC4=O)C5=O)C3)nc2C2CC2)c1` (stereo partly drawn) [GS-606, 5-(((trans-3-(3-Cyclopropyl-4-(4-(dimethylamino)pyridin-2-yl)-1H-pyrazol-1-yl)cyclobutyl)methyl)amino)-2-(2,6-dioxopiperidin-3-yl)isoindoline-1,3-dione], the IC50 in the test on MOLM-13 cells (setting [5]), in the test with MOLM-13 cells (setting [9]), with MV4;11 cells (setting [7]) and with MV4;11 cells (setting [10]) was greater than 1000 nM in each case.
On to `O=C1CCC(N2C(=O)c3ccc(NCCC[C@H]4C[C@H](n5cc(-c6ncccc6Cl)c(C6CC6)n5)C4)cc3C2=O)C(=O)N1` (stereo partly drawn) [GS-070, 5-((3-(trans-3-(4-(3-chloropyridin-2-yl)-3-cyclopropyl-1H-pyrazol-1-yl)cyclobutyl)propyl)amino)-2-(2,6-dioxopiperidin-3-yl)isoindoline-1,3-dione], for which the IC50 in the test with MOLM-13 cells (setting [5]) was 100 to 1000 nM; in the test on MOLM-13 cells (setting [6]), less than 10 nM; in the test on MV4;11 cells (setting [7]), 10 to 100 nM; in the test with MV4;11 cells (setting [8]), less than 10 nM.
Consider `O=C1CCC(N2Cc3cc(NC(=O)CCCCC(=O)N4CCC(n5cc(-c6cnc7cccc(Br)c7n6)cn5)CC4)ccc3C2=O)C(=O)N1` (stereo not drawn) [GS-020, 6-(4-(4-(8-Bromoquinoxalin-2-yl)-1H-pyrazol-1-yl)piperidin-1-yl)-N-(2-(2,6-dioxopiperidin-3-yl)-1-oxoisoindolin-5-yl)-6-oxohexanamide], for which the IC50 in the test on MOLM-13 cells (setting [1]) is 11 nM; with MOLM-13 cells (setting [2]) it was 87 nM; in the test on MV4;11 cells (setting [3]), 3 nM; in the test with MV4;11 cells (setting [4]), 29 nM.
Take `CNc1ccnc(-c2cn([C@H]3C[C@H](CNc4ccc5c(c4)C(=O)N(C4CCC(=O)NC4=O)C5=O)C3)nc2C2CC2)c1` (stereo partly drawn) [GS-306, 5-(((trans-3-(3-Cyclopropyl-4-(4-(methylamino)pyridin-2-yl)-1H-pyrazol-1-yl)cyclobutyl)methyl)amino)-2-(2,6-dioxopiperidin-3-yl)isoindoline-1,3-dione]: the IC50 in the test with MOLM-13 cells (setting [5]), in the test with MOLM-13 cells (setting [6]), with MV4;11 cells (setting [7]) and with MV4;11 cells (setting [8]) was greater than 1000 nM each time.
Turning to `O=C1CCC(N2C(=O)c3ccc(NC[C@H]4C[C@H](n5cc(-c6ncccc6Cl)c(C6CC6)n5)C4)cc3C2=O)C(=O)N1` (stereo partly drawn) [GS-272, 5-(((trans-3-(4-(3-Chloropyridin-2-yl)-3-cyclopropyl-1H-pyrazol-1-yl)cyclobutyl)methyl)amino)-2-(2,6-dioxopiperidin-3-yl)isoindoline-1,3-dione], the IC50 in the test with MOLM-13 cells (setting [5]) is 10 to 100 nM; in the test on MOLM-13 cells (setting [6]), less than 10 nM; in the test on MV4;11 cells (setting [7]), less than 10 nM; in the test on MV4;11 cells (setting [8]) it was less than 10 nM.
As for `O=C1CCC(N2C(=O)c3ccc(NCCC[C@H]4C[C@H](n5cc(-c6ccccn6)cn5)C4)cc3C2=O)C(=O)N1` (stereo partly drawn) [GS-582, 2-(2,6-Dioxopiperidin-3-yl)-5-((3-(trans-3-(4-(pyridin-2-yl)-1H-pyrazol-1-yl)cyclobutyl)propyl)amino)isoindoline-1,3-dione], the IC50 is greater than 1000 nM in the test with MOLM-13 cells (setting [5]), 10 to 100 nM in the test on MOLM-13 cells (setting [9]), 100 to 1000 nM in the test on MV4;11 cells (setting [7]) and 10 to 100 nM with MV4;11 cells (setting [10]).
Regarding `O=C1CCC(N2C(=O)c3ccc(NC[C@H]4C[C@H](n5cc(-c6cnc7c(N8CCOCC8)cccc7n6)c(C6CC6)n5)C4)cc3C2=O)C(=O)N1` (stereo partly drawn) [GS-266, 5-(((trans-3-(3-Cyclopropyl-4-(5-morpholinoquinoxalin-2-yl)-1H-pyrazol-1-yl)cyclobutyl)methyl)amino)-2-(2,6-dioxopiperidin-3-yl)isoindoline-1,3-dione], the IC50 with MOLM-13 cells (setting [5]), in the test with MOLM-13 cells (setting [6]), in the test with MV4;11 cells (setting [7]) and in the test with MV4;11 cells (setting [8]) was less than 10 nM each time.
Regarding `O=C1CCC(N2C(=O)c3ccc(NC4CC(CCCn5cc(-c6cnc7ccccc7n6)cn5)C4)cc3C2=O)C(=O)N1` (stereo not drawn) [GS-556], the IC50 with MOLM-13 cells (setting [5]), in the test with MOLM-13 cells (setting [9]), in the test on MV4;11 cells (setting [7]) and in the test with MV4;11 cells (setting [10]) was greater than 1000 nM throughout.
For the molecule `O=C1CCC(N2C(=O)c3ccc(NCCCCCCn4cc(-c5ccccc5)cn4)cc3C2=O)C(=O)N1` (stereo not drawn) [GS-496, 2-(2,6-dioxopiperidin-3-yl)-5-((6-(4-phenyl-1H-pyrazol-1-yl)hexyl)amino)isoindoline-1,3-dione], the IC50 in the test on MOLM-13 cells (72 h, compound alone (without gilteritinib), three days, read-out: MOLM-13 IC50) lay within 100 to 1000 nM; in the test on MOLM-13 cells (72 h, compound with gilteritinib 20 nM, three days, read-out: MOLM-13 IC50 gilteritinib) it was 10 to 100 nM; in the test on MV4;11 cells (72 h, compound alone (without gilteritinib), three days, 11 IC50), 100 to 1000 nM; with MV4;11 cells (72 h, compound with gilteritinib 10 nM, three days, 11 IC50 gilteritinib), 10 to 100 nM.
`CNC(=O)c1nn([C@H]2C[C@H](CNc3ccc4c(c3)C(=O)N(C3CCC(=O)NC3=O)C4=O)C2)cc1-c1cccc(C)n1` (stereo partly drawn) [GS-637, 1-(trans-3-(((2-(2,6-dioxopiperidin-3-yl)-1,3-dioxoisoindolin-5-yl)amino)methyl)cyclobutyl)-N-methyl-4-(6-methylpyridin-2-yl)-1H-pyrazole-3-carboxamide]: the IC50 in the test on MOLM-13 cells (setting [5]) was 100 to 1000 nM; in the test on MOLM-13 cells (setting [9]), 10 to 100 nM; in the test on MV4;11 cells (setting [7]), 10 to 100 nM; in the test on MV4;11 cells (setting [10]), less than 10 nM.
As for `CC(C)(CCCNc1ccc2c(c1)C(=O)N(C1CCC(=O)NC1=O)C2=O)C(=O)N1CCC(n2cc(-c3cnc4ccccc4n3)cn2)CC1` (stereo not drawn) [GS-139, 5-((4,4-Dimethyl-5-oxo-5-(4-(4-(quinoxalin-2-yl)-1H-pyrazol-1-yl)piperidin-1-yl)pentyl)amino)-2-(2,6-dioxopiperidin-3-yl)isoindoline-1,3-dione], the IC50 was greater than 1000 nM in the test on MOLM-13 cells (setting [5]), greater than 1000 nM in the test with MOLM-13 cells (setting [6]), 100 to 1000 nM in the test with MV4;11 cells (setting [7]) and 100 to 1000 nM in the test on MV4;11 cells (setting [8]).
